{"source": "patent US20240051952A1", "about": "“HMOX1 INDUCERS” (Mitobridge Inc., priority 2019, published 2024)", "key": {"[1]": {"test_system": "Primary human pulmonary artery endothelial cells (HPAEC)", "assay": "Glutathione (GSH) levels in primary human endothelial cells under hemin stress", "assay_type": "cell-based", "protocol": "Example 149. Glutathione (GSH) Levels in Primary Human Endothelial Cells\nPrimary human pulmonary artery endothelial cells (HPAEC) (Lonza #CC-2530) cultured in endothelial cell growth medium-2 (EGM2 media, Lonza #CC-3162) were seeded in white 96-well plate (Corning® #3610) at 12.5 k cells per well and placed at 37° C. in 5% CO2. 18-24 hr post seeding, cells were treated with the compound of Example 17 via media change. 24 hr post treatment with the compound, cells were treated using a freshly prepared hemin stock (Sigma-Aldrich #51280 in 0.1N NaOH) alone or with the compound of Example 17. […] Media was aspirated off and GSH-Glo™ Glutathione Assay (Promega #V6911) was run following the manufacturer's protocol. White bottom plate seal (PerkinElmer #6005199) was used during read. Analysis was done using Softmax Pro."}, "HbSS Townes sickle mice [2]": {"test_system": "HbSS Townes sickle mice", "assay": "F-cells in HbSS Townes sickle mice", "assay_type": "in vivo, mouse", "excerpt": "Blood smears were made using heparinized whole blood for F-cells staining. Stained F-cells and total red blood cells were counted on the blood smears in four fields; mean=77 red blood cells/field. F-cells are expressed as a percentage of total red blood cells. Values are means+SD. One-Way ANOVA with Dunnett's Multiple comparison to Vehicle **p≤0.01, ***p≤0.001, ****p≤0.0001\n(§1) Dosing Scheme of HMOX Inducers to HbSS Townes Sickle Mice\nHbSS Townes sickle mice were oral gavaged once daily with Vehicle or the compound of Example 17 listed below for 8 days. To minimize experimental inconsistency, fresh formulation was prepared every day and vortexed prior to drawing test article into syringe for each dosing, and dosing was performed by the same individual throughout the day. The last-day dose was administered by oral gavage 4 hours prior to hemin infusion described below. • 1. […]\nF-cells were stained on whole blood smears by the Kleihauer-Betke method using a fetal cell stain kit (Simmler) according to the manufacturer's instructions. F-cells and total erythrocytes were counted in 4 separate microscopic fields at 100× magnification for each mouse. The F-cells were expressed as a percentage of total erythrocytes (i.e., red blood cells). […]"}, "HbSS Townes sickle mice [3]": {"test_system": "HbSS Townes sickle mice", "assay": "Heme-induced vaso-occlusion (stasis) in HbSS Townes sickle mice", "assay_type": "in vivo, mouse", "conditions": "1 h after heme infusion", "excerpt": "Townes-SS mice were gavaged once daily with Vehicle or the compound of Example 17 for 8 days. After the last gavage dorsal skin-fold chambers were implanted on the mice and 20-22 flowing venules were selected and mapped in the subcutaneous skin using intravital microscopy. Mice were then infused via the tail vein with Panhematin (3.2 μmols heme/kg body weight). One hour after infusion each venule was re-examined for microvascular stasis (no flow) and data are expressed as % stasis. Stasis values are means+SD. One-Way ANOVA with Dunnett's Multiple comparison to Vehicle ****P<0.0001\nas §1\nHbSS Townes sickle mice were oral gavaged once daily with Vehicle or the compound of Example 17 listed below for 8 days. To minimize experimental inconsistency, fresh formulation was prepared every day and vortexed prior to drawing test article into syringe for each dosing, and dosing was performed by the same individual throughout the day. The last-day dose was administered by oral gavage 4 hours prior to hemin infusion described below. • 1. Vehicle (0.5% w/v Tween 80 in 0.45% w/v methyl cellulose) • 2. the compound of Example 17 (10 mg/kg PO dosing) • 3. the compound of Example 17 (25 mg/kg PO dosing) • 4. the compound of Example 17 (50 mg/kg PO dosing)\nMeasurement of Vaso-Occlusion (Stasis)\nMale and female sickle mice, approximately 12 weeks of age, were weighed before surgery. Animals were anesthetized with a mixture of ketamine (106 mg/kg) and xylazine (7.2 mg/kg) and dorsal skin-fold chambers (DSFCs) were surgically implanted. On the same day anesthetized mice were placed on a special intravital microscopy stage, and 20-22 flowing subcutaneous venules in the DSFC window were selected and mapped. After venule selection and mapping, hemin chloride (2.677 mM; Frontier Scientific), dissolved in sterile saline containing sodium carbonate (11.36 mM; Sigma-Aldrich) and D-sorbitol (9.59 mM; Sigma-Aldrich), was filtered (0.22 μm), diluted 1:10 in sterile saline (267.7 μM hemin, final) and infused into the tail veins of mice (0.012 ml/g, 3.2 μmols heme/kg body weight). All of the selected venules were re-examined at 1 h after hemin infusion, and the number of static (no flow) venules was counted and expressed as percent stasis. Four hours after hemin infusion, mice were euthanized in a CO2 atmosphere and the liver, spleen and kidneys were removed, flash frozen, and stored at −85° C."}, "[4]": {"conditions": "10, 25, 50 mg/kg PO once daily 8 days"}}, "note": "“Also recorded” adds a separate entry of the source.", "data": [{"smiles": "Cn1c(Nc2nc3ccccc3o2)nc2cc(C(=O)NCCOCCO)ccc21", "note": "[Example 17, 2-(benzo[d]oxazol-2-ylamino)-N-(2-(2-hydroxyethoxy)ethyl)-1-methyl-1H-benzo[d]imidazole-5-carboxamide]", "values": [{"measurement": "GSH levels / protection from hemin mediated oxidative stress", "setting": "[1]; 24 hr pre-incubation, 30 min hemin stress", "value": "protects these cells from hemin mediated oxidative stress"}, {"measurement": "toxicity, visual inspection of cells", "setting": "[1]; after 30 min of hemin stress", "value": "no toxicity being noted"}, {"measurement": "percent F-cells vs vehicle", "setting": "HbSS Townes sickle mice [2]; [4]", "value": "significantly increased; also recorded: percentage of F-cells increase"}, {"measurement": "percent F-cells", "setting": "HbSS Townes sickle mice [2]; all doses tested (10, 25, 50 mg/kg PO, 8 days), % of total red blood cells", "value": "55-70%"}, {"measurement": "stasis", "setting": "HbSS Townes sickle mice [3]; 10 mg/kg PO once daily 8 days", "value": "~17", "unit": "%"}, {"measurement": "stasis", "setting": "HbSS Townes sickle mice [3]; 25 mg/kg PO once daily 8 days", "value": "~12", "unit": "%"}, {"measurement": "stasis", "setting": "HbSS Townes sickle mice [3]; 50 mg/kg PO once daily 8 days", "value": "~5", "unit": "%"}, {"measurement": "microvascular stasis vs Vehicle", "setting": "HbSS Townes sickle mice [3]; [4]", "value": "significantly reduced; also recorded: dose responsively inhibit microvascular stasis"}]}]}
